What was measured:
[1] = system: differentiated SH-SY5Y human neuronal cells; experiment: MTT assay: cytotoxicity of the substance alone (primary screen, no added insult); format: cell-based; settings: for toxicity in primary screen / Cell Death (%) vs Vehicle Control: FIG. 1; for Cell Death (%) vs Vehicle Control: 15 μM, pre-screen
Experimental: (§1) Cell Culture and Differentiation: The SH-SY5Y human neuronal cell line was derived from neuroblastoma established from a metastatic bone tumor (patient with neuroblastoma). The cells were maintained in DMEM:F12 culture medium supplemented with 10% FBS and 1% Antibiotic-Antimycotic penicillin/streptomycin (growth medium) at 37° C. in a humidified atmosphere of 5% CO2. To induce neuronal differentiation of SH-SY5Y cells, culture media was replaced by a growth medium containing Retinoic Acid (RA) for 4-5 days at 37° C. in a humidified atmosphere of 5% CO2.
(§2) Compounds and Dosing Formulations: Selected cannabinoids: CBD, CBDA, CBC, CBG, CBGA, CBN, CBND and Δ^9-THC were procured from Cayman Chemicals and TRC. Ethanol (100%) was used as the solvent to prepare 1 and 10 mM stock solutions. Treatment concentrations for CBGA were prepared at 0.5 μM, 1.5 μM, 5 μM, 10 μM, 15 μM, 20 μM. Treatment concentrations for CBD, CBDA, CBC, CBN, CBND and Δ^9-THC were prepared at 0.5, 1.5, 5 and for CBG at 0.5 μM, 1.5 μM, 5 μM, 10 μM, 15 μM. Treatments were prepared directly in the control medium (DMEM:F12+5% FBS+1% Antibiotic-Antimycotic) by using appropriate stock solutions.
(§3) Evaluation of Cytotoxicity and Neuroprotection: Evaluation of cannabinoids neuroprotection and cytotoxicity on differentiated SH-SY5Y human neuronal cells was carried out by MTT (3-(4,5-dimethylthiazol-2-yl)-2,5-diphenyltetrazolium bromide) assay. Initially, cannabinoid cytotoxicity and neuroprotection were evaluated in a primary screen assay without the presence of cytotoxicity inducing insult agents. […] The Retinoic Acid (RA) differentiated SH-SY5Y neuronal cells were seeded onto 96-well plates (10,000 cells/well) in DMEM:F12 complete medium. Cells were differentiated for 4-5 days in the presence of RA.
(§4) MTT Assay: For the MTT assay, differentiated SH-SY5Y neuronal cells were treated with cannabinoids at various concentrations for 72 hrs in the presence of STSR at 75 nM, 100 nM, 150 nM and 200 nM or for 24 hrs in the presence of […] at 5 μM, respectively and processed to determine cytotoxicity. Briefly, 5 mg/mL of methylthiazolyldiphenyl-tetrazolium bromide (Sigma-Aldrich) stock solution was prepared in PBS. Following treatment of SH-SY5Y neuronal cells with cannabinoids for 72 hrs, the cells were incubated with 20 μL of MTT stock solution in 200 μL DMEM for 2 hrs at 37° C. Following subsequent washes with PBS, 200 μL of isopropanol was added to each well. The resulting change in color from dissolving formazan salt was immediately quantified using a spectrophotometer (BMG Labtech) at a wavelength of 570 nm. […] The results are illustrated in FIGS. 1-7.

BAX = experiment: Western blot of BAX (pro-apoptotic marker); format: cell-based, human; settings: Aβ1-42 (5 μM) alone, FIG. 9
Experimental: (§5) For Western blot analysis, control and the treated cells were harvested and lysed in cold lysis buffer (150 mM NaCl, 50 mM Tris-HCl, 1% Triton X-100, 0.1% SDS, 0.5% Sodium deoxycholate, and 1% protease-phosphatase inhibitor mixture). The supernatants were collected and protein concentrations were determined using Bio-Rad protein assay (Bio-Rad Laboratories). Whole cell lysates (10 μg) were subjected to 10% SDS-polyacrylamide electrophoresis and transferred to nitrocellulose membrane. The membranes were blocked with 5% skim milk in TBS-T (Tris-buffered saline with 0.05% Tween-20) for 1 h at RT and blotted overnight in the presence of monoclonal anti-mouse MAP2 (1:1000, Sigma, cat. no. M1406), Tau (1:1000, Invitrogen, cat. no. AHB0042), TUJI (1:5000, BioLegend, cat. no. MMS-435P), BAX (1:1000, Cell signaling, cat. no. 2772) and rabbit polyclonal total and phosphorylated BCL (1:1000, Cell signaling, antibodies #2827 and 2870). The membranes were washed and incubated for 1 h in RT with either horseradish peroxidase (HRP)-conjugated goat anti-mouse (1:2000) or goat anti-rabbit antibodies (1:2000) (Jackson Lab). The membranes were washed and developed using chemiluminescence detection kit (Millipore, Billerica, MA, USA) on Alpha Innotech FluorChem 8800. β-Actin or Vinculin was used as a loading control. […]

[2] = system: differentiated SH-SY5Y cells; experiment: Confocal immunofluorescence of MAP2 and neurite morphology; format: cell-based, human; settings: Aβ1-42 at 5 μM alone, FIG. 16
Experimental: SH-SY5Y cells were differentiated with RA (10 μM) for 5 days as indicated.
Accordingly, the effect of CBGA on the expression of MAP-2 was tested.

BCL2 = experiment: Western blot of phosphorylated BCL2 (anti-apoptotic marker); format: cell-based, human; settings: Aβ1-42 insult alone, FIG. 10
Experimental: as §5

[3] = system: differentiated SH-SY5Y human neuronal cells; experiment: MTT assay: neuroprotection from Staurosporin (STSR) induced cytotoxicity; format: cell-based; settings: for neuroprotection against STSR-induced cytotoxicity: 0.5 μM, 1.5 μM and 5 μM with STSR 75 nM, 72 hrs; for neuroprotection against STSR-induced cytotoxicity / Cell Death (%) vs STSR at 75 nM, significance: FIG. 3; for Cell Death (%) vs STSR at 75 nM, significance: 5 μM with STSR 75 nM, compared to STSR-alone, One-Way ANOVA
Experimental: as §1, §2, §3, §4

[4] = system: differentiated SH SY5Y cells treated with Aβ1-42; experiment: Receptor antagonist study: reversal of CBGA mediated protection from Aβ toxicity; format: cell-based, human; settings: CB2 antagonist at 1.5 μM (lowest concentration tested), with CBGA + Aβ1-42, FIG. 8
Experimental: FIG. 8 illustrates the effect of a CB2 antagonist has on the reversal of CBGA mediated protection of Aβ toxicity. The CB2 antagonist […] has a more prominent effect on the reversal of CBGA mediated protection. […] CB2 antagonist has significant effect on the reversal of CBGA mediated protection at lower concentration. p<0.0001 for Aβ compared to vehicle control. p<0.0001 for all groups compared to CBGA ([…])+Aβ.

[5] = system: differentiated SH-SY5Y human neuronal cells; experiment: MTT assay: neuroprotection from Aβ1-42 induced cytotoxicity; format: cell-based
Experimental: as §1, §2, §3, §4

[6] = system: differentiated SH-SY5Y cells; experiment: Neurite length / neuritogenesis in differentiated SH-SY5Y cells; format: cell-based, human; settings: 24 hours post treatment, FIG. 14 (B)
Experimental: FIG. 12 provides representative photomicrographs illustrating CBGA mediated changes in neurite elongation and branching in differentiated SH-SY5Y cells in a dose dependent manner. […] FIG. 12 also provides a histogram showing gradual changes in neurite length following treatment with CBGA.
(§6) FIG. 14 Morphological characterization of CBGA, THC and CBN mediated changes in differentiated SH-SY5Y cells. SH-SY5Y cells were differentiated with RA (10 μM) for 5 days as indicated. (A) Representative confocal photomicrographs showing changes in the cellular distribution of Tuj1 in RA induced differentiated SH-SY5Y cells following treatment with CBGA, THC and CBN. (B) Histogram showing the effect of CBGA, CBN, THC on neurite length.

CB1R = experiment: Changes in CB1 receptor expression and translocation; format: cell-based; settings: CBGA 5 μM, 10 μM, dose-dependent; FIG. 11
Description: FIG. 11 Changes in receptor expression.

[7] = system: differentiated SH-SY5Y cells; experiment: Immunocytochemistry of TuJ1 and neuronal morphology; format: cell-based, human; settings: 5 μM, FIG. 14
Experimental: as §6

In the case of C=C(C)[C@@H]1CCC(C)=C[C@H]1c1c(O)cc(CCCCC)c(C(=O)O)c1O [CBDA, cannabidiolic acid], the “toxicity in primary screen” value ([1]; 5 μM to 15 μM) is reported as “high levels of toxicity”, the “Cell Death (%) vs Vehicle Control” value [1] is reported as “promote cell death” and the “toxicity in primary screen” value ([1]; about 0.5 μM to 1.5 μM) is reported as “high levels of toxicity”.
With “Aβ1-42: Amyloid-beta (Aβ1-42) peptide, insult-inducing cytotoxic agent” the BAX expression (BAX) was “induced upregulation”, the cytotoxicity ([1]; Aβ1-42 insult alone at 5 μM, 24 hrs, FIG. 7) was 23-52% and the neurite morphology [2] was “damaged neurite outgrowth”. For the same molecule, the BCL2 expression (BCL2) was “downregulation”.
For CN[C@@H]1C[C@H]2O[C@@](C)([C@@H]1OC)n1c3ccccc3c3c4c(c5c6ccccc6n2c5c31)C(=O)NC4 [STSR, Staurosporin], the cell death ([1]; STSR 75 nM, 72 hrs, vs vehicle control, FIG. 2) was ~34%, the cell death ([1]; STSR 200 nM, 72 hrs, vs vehicle control, FIG. 2) was ~66% and the cell death ([1]; STSR-insult alone at 75 nM, FIG. 5) was ~48%.
C=C(C)[C@@H]1CCC(C)=C[C@H]1c1c(O)cc(CCCCC)cc1O [CBD, cannabidiol] was tested, and the “neuroprotection against STSR-induced cytotoxicity” value [3] was “did not protect”, the “Cell Death (%) vs STSR at 75 nM, significance” value [3] was “statistically significant cytotoxicity” and the “toxicity in primary screen” value ([1]; 5 μM to 15 μM) was “high levels of toxicity”. For the same molecule, the “Cell Death (%) vs Vehicle Control” value [1] was “promote cell death” and the “toxicity in primary screen” value ([1]; about 0.5 μM to 1.5 μM) was “high levels of toxicity”.
Cc1ccc(Cn2nc(C(=O)N[C@@H]3C(C)(C)[C@@H]4CC[C@@]3(C)C4)cc2-c2ccc(Cl)c(C)c2)cc1 [SRI 14528, 5-(4-chloro-3-methylphenyl)-1-[(4-methylphenyl)methyl]-N-[(1S,2S,4R)-1,3,3-trimethylbicyclo[2.2.1]heptan-2-yl]-1H-pyrazole-3-carboxamide] was tested, and the “reversal of CBGA mediated neuroprotection” value [4] was “completely reversed”.
With CCCCCc1cc(O)c(C/C=C(\C)CCC=C(C)C)c(O)c1 [CBG, cannabigerol] the “protection from STSR induced cytotoxicity” value ([3]; 5 μM, 10 μM and 15 μM with STSR 75 nM, FIG. 6) was “did not protect”, the “Cell Death (%) vs STSR, significance” value ([3]; 15 μM with STSR 75 nM, p=0.0002, FIG. 6) was “statistically significant cytotoxicity” and the “toxicity in primary screen” value ([1]; 5 μM to 15 μM) was “high levels of toxicity”. For the same molecule, the “Cell Death (%) vs Vehicle Control” value [1] was “promote cell death”, the “protection from Aβ1-42 induced insult” value ([5]; 1.5 μM, 5 μM and 10 μM with Aβ1-42 5 μM, FIG. 7) was “did not protect” and the “cytotoxicity with Aβ1-42” value ([5]; 10 μM with Aβ1-42 5 μM, p<0.0001, FIG. 7) was “significant cytotoxicity”.
With CCCCCc1cc(O)c2c(c1)OC(C)(C)[C@@H]1CCC(C)=C[C@@H]21 [Δ9-THC, Δ^9-tetrahydrocannabinol] the “toxicity in primary screen” value ([1]; 5 μM to 15 μM) was “high levels of toxicity”, the “Cell Death (%) vs Vehicle Control” value [1] was “promote cell death” and the “toxicity in primary screen” value ([1]; about 0.5 μM to 1.5 μM) was “high levels of toxicity”. The neurite length [6] was “significantly decreased the neurite length”, the “CB1R expression and translocation” value (CB1R) was “did not alter the expression of CB1R” and the “neuronal morphology and neurite outgrowth, TuJ1 staining” value [7] was “disrupted neuronal morphology and neurite outgrowth”.
In the case of CCCCCc1cc(O)c2c(c1)OC(C)(CCC=C(C)C)C=C2 (stereo not drawn) [CBC, cannabichromene], the “toxicity in primary screen” value ([1]; 5 μM to 15 μM) is reported as “high levels of toxicity”, the “Cell Death (%) vs Vehicle Control” value [1] is reported as “promote cell death” and the “toxicity in primary screen” value ([1]; about 0.5 μM to 1.5 μM) is reported as “high levels of toxicity”.
C=C(C)c1ccc(C)cc1-c1c(O)cc(CCCCC)cc1O [CBND] was tested, and the “neuroprotection against STSR-induced cytotoxicity” value [3] was “did not protect”, the “Cell Death (%) vs STSR at 75 nM, significance” value [3] was “statistically significant cytotoxicity” and the “toxicity in primary screen” value ([1]; 5 μM to 15 μM) was “high levels of toxicity”. For the same molecule, the “Cell Death (%) vs Vehicle Control” value [1] was “promote cell death”.
For CCCCCc1cc(O)c2c(c1)OC(C)(C)c1ccc(C)cc1-2 [CBN, cannabinol], the “neuroprotection against STSR-induced cytotoxicity” value [3] was “did not protect”, the “Cell Death (%) vs STSR at 75 nM, significance” value [3] was “statistically significant cytotoxicity” and the “toxicity in primary screen” value ([1]; 5 μM to 15 μM) was “high levels of toxicity”. For the same molecule, the “Cell Death (%) vs Vehicle Control” value [1] was “promote cell death”, the neurite length [6] was “significantly decreased the neurite length” and the “CB1R expression and translocation” value (CB1R) was “did not alter the expression of CB1R”. For the same molecule, the “neuronal morphology and neurite outgrowth, TuJ1 staining” value [7] was “loss of neurite outgrowth and elongation”.
